Test results as given in US20140023611A1 (priority 2010, published 2014).

Assays:
rat NaP2b (SLC34A2) [1] = biological target: T1, rat NaP2b (SLC34A2) (Rattus norvegicus, UniProt Q9JJ09); test: Inhibition of NaP2b-mediated Pi (33P) uptake in transfected HEK293 cells, rat NaP2b; assay type: cell-based; details: 33P Pi uptake, 0.1 mM phosphate, value given as pIC50 range
T1 construct: host or cells: HEK293
T1 sequence (Q9JJ09 1-695): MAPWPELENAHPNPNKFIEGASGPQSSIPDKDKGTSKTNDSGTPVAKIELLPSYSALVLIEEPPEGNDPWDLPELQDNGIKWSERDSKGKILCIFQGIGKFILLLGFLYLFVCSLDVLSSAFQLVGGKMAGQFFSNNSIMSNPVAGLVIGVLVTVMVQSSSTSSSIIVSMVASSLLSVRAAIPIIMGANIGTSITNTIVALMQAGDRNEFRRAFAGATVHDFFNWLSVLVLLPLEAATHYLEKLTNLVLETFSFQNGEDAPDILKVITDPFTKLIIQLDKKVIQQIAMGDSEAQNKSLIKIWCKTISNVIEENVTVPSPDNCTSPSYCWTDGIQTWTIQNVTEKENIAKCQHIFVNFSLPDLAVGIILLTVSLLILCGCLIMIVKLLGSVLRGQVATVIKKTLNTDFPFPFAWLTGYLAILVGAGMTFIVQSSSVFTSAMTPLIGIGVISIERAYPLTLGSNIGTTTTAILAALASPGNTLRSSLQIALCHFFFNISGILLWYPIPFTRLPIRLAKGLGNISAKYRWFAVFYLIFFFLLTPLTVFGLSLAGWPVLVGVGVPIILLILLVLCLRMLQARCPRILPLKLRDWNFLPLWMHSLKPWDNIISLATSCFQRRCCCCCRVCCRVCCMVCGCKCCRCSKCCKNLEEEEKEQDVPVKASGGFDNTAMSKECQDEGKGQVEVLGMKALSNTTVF
Outline: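 The cells transiently expressed NaP2b after Lipofectamine transfection. Each compound was run in duplicate over twelve concentrations, 0.1 nM–30 uM.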

human NaP2b (SLC34A2) = biological target: T2, human NaP2b (SLC34A2) (Homo sapiens, UniProt O95436); test: Inhibition of NaP2b-mediated Pi (33P) uptake in transfected HEK293 cells, human NaP2b; assay type: cell-based; details: read-out: pIC50 range for human NaP2b (converted)
T2 construct: host or cells: HEK293
T2 sequence (O95436 1-690): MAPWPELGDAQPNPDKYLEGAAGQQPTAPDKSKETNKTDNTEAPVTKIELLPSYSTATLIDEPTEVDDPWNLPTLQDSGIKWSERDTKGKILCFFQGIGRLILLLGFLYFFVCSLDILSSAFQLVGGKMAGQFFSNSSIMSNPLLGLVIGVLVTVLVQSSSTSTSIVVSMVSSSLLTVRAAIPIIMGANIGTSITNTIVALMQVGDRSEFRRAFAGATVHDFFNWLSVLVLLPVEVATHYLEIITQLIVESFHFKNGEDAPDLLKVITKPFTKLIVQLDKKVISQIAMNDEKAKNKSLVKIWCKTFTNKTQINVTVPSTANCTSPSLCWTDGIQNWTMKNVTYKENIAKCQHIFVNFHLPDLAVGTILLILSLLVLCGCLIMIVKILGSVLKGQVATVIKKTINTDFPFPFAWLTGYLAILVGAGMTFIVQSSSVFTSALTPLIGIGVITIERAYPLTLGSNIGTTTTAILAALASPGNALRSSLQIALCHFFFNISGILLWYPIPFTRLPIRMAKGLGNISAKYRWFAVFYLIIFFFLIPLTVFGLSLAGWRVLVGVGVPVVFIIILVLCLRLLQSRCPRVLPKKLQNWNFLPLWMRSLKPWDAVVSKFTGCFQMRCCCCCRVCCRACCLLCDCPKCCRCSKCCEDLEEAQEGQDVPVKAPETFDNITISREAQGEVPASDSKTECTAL
Outline: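 Uptake of 33P-phosphate (100 uM KH2PO4 carrier, sodium vs choline buffer, pH 7.4) measured after 3-30 min at room temperature, with test compound at twelve concentrations from 0.1 nM to 30 uM in duplicate. Cells were HEK293 transfected with mutated human NaP2b (Thr insertion after 37, N39D) and treated with a PiT-silencing agent. pIC50 values from scintillation counts.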

NaPi2b = test: Competition with phosphate: Pi uptake assay repeated at 2.1 vs 0.1 mM phosphate; assay type: cell-based; details: potency at 2.1 vs 0.1 mM phosphate
Excerpt: For example, a phosphate uptake assay can be performed and the IC50 values for a compound at different phosphate concentrations can be determined (e.g., “Enzyme kinetics”, I. Segel, 1975, John-Wiley & Sons, p. 123). IC50 values for non-competitive inhibitors will remain the same or similar with respect to the phosphate concentration, whereas IC50 values for competitive inhibitors will increase (i.e lose potency) as phosphate concentration increases.
To ascertain if an inhibitor was competitive for binding with phosphate, the procedure was repeated, but raising the concentration of the substrate in the assay mixture from 0.1 to 2.1 mM phosphate.

rat NaP2b (SLC34A2) [2] = biological target: T1, rat NaP2b (SLC34A2); test: NaP2b-mediated Pi transport (33P uptake) in transfected HEK293 cells, rat NaP2b; assay type: cell-based; details: Structure (V) examples, Table 2; rat NaP2b, HEK293; read-out: pIC50 Range (converted)
Method: HEK293 cells were obtained from the American Type Culture collection and propagated per their instructions. Expression clones for rat and human NaP2b (SLC34A2) were obtained from Open Biosystems (Catalog numbers MRN1768-9510282, and MHS1010-99823026, respectively). The sequence of the human protein was mutated to insert a threonine after residue 37, and to introduce a N39D mutation.
(§1) The rate of phosphate (Pi) uptake into HEK293 cells was measured using a modification of the method described by Mohrmann et al. (Mohrmann, I., Mohrmann, M., Biber, J., and Murer, H. (1986) Am. J. Phys. 250(3 Pt 1):G323-30.) Transfected HEK293 cells were treated with a pharmacological agent to minimize endogenous PiT-mediated phosphate transport activity, such that the only remaining sodium-dependent phosphate transport activity is that which was bestowed by introduction of the NaP2b genes.
(§2) Cells were seeded into 96-well plates at 25,000 cells/well and cultured overnight. Lipofectamine 2000 (Invitrogen) was used to introduce the NaP2b cDNA, and the cells were allowed to approach confluence during a second overnight incubation. […] Cells were then overlayed with either choline uptake buffer or sodium uptake buffer (14 mM Tris, 137 mM sodium chloride, 5.4 mM KCl, 2.8 mM CaCl2, 1.2 mM MgSO4, 100 uM KH2PO4, PiT-silencing agent, 1 mg/mL Bovine Serum Albumin, pH 7.4) containing 6-9 uCi/mL ^33P orthophosphoric acid (Perkin Elmer) and test compound. Each compound was tested at twelve concentrations ranging from 0.1 nM to 30 uM. Assays were run in duplicate.
After incubation for 3-30 minutes at room temperature, assay mixtures were removed, and the cells were washed twice with ice cold stop solution (137 mM sodium chloride, 14 mM Tris, pH 7.4). Cells were lysed by addition of 20 μL 0.1% Tween 80 followed by 100 μL scintillation fluid, and counted using a TopCount (Perkin Elmer).
pIC50 (the negative log of the IC50) values of the test compounds were calculated using GraphPad Prism.
HEK293 cells were obtained from the American Type Culture collection and propagated per their instructions. Expression clones for rat and mouse NaP2b (SLC34A2) cDNAs were obtained from Open Biosystems (Catalog numbers MRN1768-9510282 and MMM1013-98478398 respectively).
as §1, with “phosphate” for “phosphate (Pi)”
as §2, with “agent, 0.1% wt/v bovine serum albumin,” for “agent, 1 mg/mL Bovine Serum Albumin,”, “Each compounds” for “Each compound”
After incubation for 3-30 minutes at room temperature, assay mixtures were removed, and the cells were washed twice with ice cold stop solution (137 mM sodium chloride, 14 mM Tris, pH 7.4).

[3] = system: uptake of phosphate from the intestine; test: In vivo assay: bolus phosphorus (phosphate) challenge; set-up: species or system Sprague-Dawley rats; details: Structure (V) examples, Table 4, rat, oral 30 mg/kg
Method: By pretreating animals with a low phosphorus diet followed by the subsequent dosing of a phosphorus bolus, serum phosphorus levels were monitored after 30 minutes as a surrogate for intestinal phosphorus absorption. […] The in vivo bolus phosphorus challenge model used here mimics this model in rats.
Male, 7-week-old Sprague-Dawley rats (Charles-River laboratories international, Hollister, Calif.) were allowed to acclimatize for a minimum of 3 days before switching to a synthetic low-phosphorus diet (TD.85010, Harlan Teklad, Madison, Wis.) which contains 0.1% phosphorus and 0.6% calcium. At day 5, testing compounds or vehicle alone (as indicated) were orally administered at the indicated dose in a volume of 5 ml/kg, followed by a bolus gavage of monobasic sodium phosphate (1 mmol in 1 ml) 15 min after compound dosing. Serum was collected via retroorbital bleeding 30 min post phosphate bolus and phosphate levels were determined utilizing an ACE ALERA blood chemistry analyzer (Alfa Wassermann Diagnostic Technologies, West Caldwell, N.J.). […]
Male, 7-week-old Sprague-Dawley rats (Charles-River laboratories international, Hollister, Calif.) were allowed to acclimate for a minimum of 3 days before switching to a synthetic low-phosphorus diet (TD.85010, Harlan Teklad, Madison, Wis.) which contains 0.1% phosphorus and 0.6% calcium. At day 5, testing compounds or vehicle alone (as indicated) were orally administered at the indicated dose in a volume of 5 ml/kg, followed by a bolus gavage of monobasic sodium phosphate (1 mmol in 1 ml) 15 min after compound dosing. Serum was collected via retroorbital bleeding 30 min post phosphate bolus and phosphate levels were determined utilizing an ACE ALERA blood chemistry analyzer (Alfa Wassermann Diagnostic Technologies, West Caldwell, N.J.).
Serum was collected 30 minutes after gavage, and phosphate levels measured. […] The in vivo bolus phosphate challenge model used here mimics this model in rats.
Male, 7-week-old Sprague-Dawley rats (Charles-River laboratories international, Hollister, Calif.) were allowed to acclimatize for a minimum of 3 days before switching to a low-phosphorus diet (TD.85010, Harlan Teklad, Madison, Wis.) which contains 0.1% phosphorus and 0.6% calcium. At day 5, testing compounds or vehicle alone (as indicated) were orally administered at the indicated dose in a volume of 5 ml/kg, followed by a bolus gavage of monobasic sodium phosphate (1 mmol in 1 ml) 15 min after compound dosing. Serum was collected via retroorbital bleeding 30 min post phosphate bolus and serum phosphate levels were determined utilizing an ACE ALERA blood chemistry analyzer (Alfa Wassermann Diagnostic Technologies, West Caldwell, N.J.).
The representative data on effects of test compounds on serum phosphate levels are shown in Table 4 (data are expressed as mean±SD, with 6 animals per data point). The differences between groups were evaluated by one-way analysis of variance with Dunnett's post hoc tests.

IC50 (rat NaP2b (SLC34A2) [1])	IC50 (human NaP2b (SLC34A2))	SMILES	Competitive with respect to Pi? (NaPi2b)	IC50 (rat NaP2b (SLC34A2) [2])	% Decrease in serum [Pi] [3]	Serum increase [Pi] mg/dL from baseline low PI state ([3]; mean ± SD, vehicle 5.0 ± 1.3)
1 to 7.94 µM	< 1 µM	O=C(O)CCOCCOCCOCCNC(=O)c1cccc(SCc2cccc(C(=O)Nc3ccc(N4CCCCC4)cc3-c3cc(C(=O)NCc4cccc(C(F)(F)F)c4)ccn3)c2)c1 [Example 10.1, 1-oxo-1-(3-(3-(4-(piperidin-1-yl)-2-(4-(3-(trifluoromethyl)benzyl-carbamoyl)pyridin-2-yl)phenylcarbamoyl)benzylthio)phenyl)-5,8,11-trioxa-2-azatetradecan-14-oic acid]	No	–	–	–
10 to 31.6 µM	–	O=C(O)c1cccc(S(=O)(=O)Cc2cccc(C(=O)Nc3ccc(N4CCCCC4)cc3-c3cc(C(=O)NCc4cccc(C(F)(F)F)c4)ccn3)c2)c1 [Example 8.26, 3-((3-((4-(Piperidin-1-yl)-2-(4-((3-(trifluoromethyl)benzyl)carbamoyl)pyridin-2-yl)phenyl)carbamoyl)benzyl)sulfonyl)benzoic acid]	No	–	–	–
< 1 µM	–	O=C(O)Cc1cccc(SCc2cccc(C(=O)Nc3ccc(N4CCCCC4)cc3-c3cc(C(=O)NCc4cccc(C(F)(F)F)c4)ccn3)c2)c1 [Example 8.18]	No	–	–	–
–	–	O=C(Nc1ccc(N2CCCCC2)cc1C(=O)N/N=C/c1ccc(Cl)c(C(F)(F)F)c1)c1cccc(Cn2cnc(CCO)c2)c1 [Ex. 47, (E)-N-(2-(2-(4-chloro-3-(trifluoromethyl)benzylidene)hydrazinecarbonyl)-4-(piperidin-1-yl)phenyl)-3-((4-(2-hydroxyethyl)-1H-imidazol-1-yl)methyl)benzamide]	–	0.1 to 0.794 µM	28%	3.6 ± 1.1 mg/dL
